A short description of the data set: Pharmacokinetic evaluation in beagle dogs. The following applies: male, dog, plasma; for AUC(0-t): read-out: Area under curve AUC0-t; for half-life: read-out: Half-life T1/2 (converted). Type of data set: in vivo. The method, then:
Beagle, male, 13 to 14 months old, purchased from Beijing Mas Biotechnology Co., Ltd.
Intravenous injection group: an appropriate amount of the compound to be tested was weighed, and an appropriate amount of DMA:30% Solutol HS-15:Saline=5:5:90 (v/v/v) was added, vortexed, and a solution with a final concentration of 0.5 mg/mL was prepared.
Intragastric administration group: an appropriate amount of the compound to be tested was weighed, and an appropriate amount of DMA:30% Solutol HS-15:Saline=5:5:90 (v/v/v) was added, vortexed, and a solution with a final concentration of 1 mg/mL was prepared.
The beagle dogs were divided into intravenous injection group (3 dogs/group) and intragastric administration group (3 dogs/group) according to the compound to be tested.
Intravenous injection group: dogs were fasted overnight and then administered by intravenous injection (administration dosage was 0.5 mg/kg, and administration volume was 1 mL/kg), and ate 4 hours after administration. […]
Intravenous injection group: about 0.5 mL of blood was collected through jugular vein into EDTA-K2 anticoagulant tubes at 0.083 hour, 0.25 hour, 0.5 hour, 1 hour, 2 hours, 4 hours, 8 hours and 24 hours after administration. […] The collected plasma sample was stored at −40˜−20° C. before analysis.
Intragastric administration group: about 0.5 mL of blood was collected through jugular vein into EDTA-K2 anticoagulant tubes at 0.25 hour, 0.5 hour, 1 hour, 2 hours, 4 hours, 8 hours and 24 hours after administration. […] The collected plasma sample was stored at −40˜−20° C. before analysis.
LC-MS/MS was used to determine the content of the compound to be tested in dog plasma after intravenous injection and intragastric administration of the compound.

Where two headings read alike, the source gives them in different places.

In the case of `COc1cc2nc(C)nc(N[C@H](C)c3cccc(C#N)c3C)c2cc1N1CCC(C)(O)CC1` [Compound 11, (R)-3-(1-((6-(4-hydroxy-4-methylpiperidin-1-yl)-7-methoxy-2-methylquinazolin-4-yl)amino)ethyl)-2-methylbenzonitrile], where the note is “Oral 2 mg/kg vs injection 0.5 mg/kg, read-out: Bioavailability F”, the bioavailability is 127%. Besides, where the note is “Oral 2 mg/kg”, the AUC(0-t) was 3510 ± 1750 ng·h/mL and the half-life was 4.21 ± 0.943 h. The Cmax (Oral 2 mg/kg, read-out: Plasma concentration Cmax) was 456 ± 149 ng/mL. For the setting “iv, injection 0.5 mg/kg”, the AUC(0-t) came out at 693 ± 183 ng·h/mL and the half-life was 2.81 ± 0.45 h.

The record behind these values is US20240382475A1, “Quinazoline Derivative, Or Preparation Method Therefor And Use Thereof” (Zhejiang Hisun Pharmaceutical Co., Ltd., priority 2021, published 2024).
